In ChEMBL document CHEMBL1201862, “PubChem BioAssay data set” (2004):
Counter-ions that a name gives are not always drawn. Activity calls are given as the source filed them.

Target: T1, Protein skinhead-1 (Caenorhabditis elegans, UniProt P34707)
T1 sequence (P34707 whole entry): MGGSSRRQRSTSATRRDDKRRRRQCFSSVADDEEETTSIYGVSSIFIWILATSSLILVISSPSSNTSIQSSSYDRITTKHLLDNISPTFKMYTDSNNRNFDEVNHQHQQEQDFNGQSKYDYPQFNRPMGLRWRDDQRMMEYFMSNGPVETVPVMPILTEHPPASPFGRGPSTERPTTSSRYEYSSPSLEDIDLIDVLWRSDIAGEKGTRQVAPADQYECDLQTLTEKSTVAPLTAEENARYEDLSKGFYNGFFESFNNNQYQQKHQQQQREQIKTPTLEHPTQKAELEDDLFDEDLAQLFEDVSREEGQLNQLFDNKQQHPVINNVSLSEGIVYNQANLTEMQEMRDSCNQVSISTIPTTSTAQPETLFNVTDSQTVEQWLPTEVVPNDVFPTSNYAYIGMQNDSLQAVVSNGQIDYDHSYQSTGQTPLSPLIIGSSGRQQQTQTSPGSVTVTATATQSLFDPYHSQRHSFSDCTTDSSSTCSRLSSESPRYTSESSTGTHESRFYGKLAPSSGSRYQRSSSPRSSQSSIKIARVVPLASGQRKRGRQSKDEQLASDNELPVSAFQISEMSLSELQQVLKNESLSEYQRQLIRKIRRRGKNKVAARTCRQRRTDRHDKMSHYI
Experiment: not given
Assay type: functional
Conditions: not given
With `COCC(=O)NCc1ccc2c(c1)cc(C)n2C` the IC50 was > 100 µM (inactive).
In the case of `O=C(Nc1ccc(-c2nnc(-c3ccccc3)o2)cc1)c1ccc(Br)o1`, the IC50 is reported as 76.3 µM (inactive).

Target: T2, Rac GTPase-activating protein 1 (Homo sapiens, UniProt Q9H0H5)
T2 sequence (Q9H0H5 whole entry): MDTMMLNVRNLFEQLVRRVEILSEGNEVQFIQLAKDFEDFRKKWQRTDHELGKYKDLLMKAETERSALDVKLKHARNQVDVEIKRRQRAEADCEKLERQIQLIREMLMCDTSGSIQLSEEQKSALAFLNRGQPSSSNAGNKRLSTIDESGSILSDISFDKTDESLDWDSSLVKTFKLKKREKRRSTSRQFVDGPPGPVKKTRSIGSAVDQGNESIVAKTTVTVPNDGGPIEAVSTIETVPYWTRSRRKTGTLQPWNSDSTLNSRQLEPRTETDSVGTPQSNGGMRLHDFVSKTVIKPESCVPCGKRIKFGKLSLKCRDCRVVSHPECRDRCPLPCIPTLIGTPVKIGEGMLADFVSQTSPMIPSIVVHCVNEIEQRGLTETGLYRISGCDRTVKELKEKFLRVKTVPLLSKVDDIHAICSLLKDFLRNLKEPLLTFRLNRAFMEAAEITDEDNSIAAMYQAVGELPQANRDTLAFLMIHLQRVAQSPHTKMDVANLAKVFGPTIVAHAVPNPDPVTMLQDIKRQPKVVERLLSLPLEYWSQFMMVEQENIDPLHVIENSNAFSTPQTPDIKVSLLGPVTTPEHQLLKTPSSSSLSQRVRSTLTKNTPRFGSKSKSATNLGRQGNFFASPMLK
Experiment: MgcRacGAP GTPase-activating activity inhibitors, confirmation, biochemical, ADP Hunter fluorescence, primary and confirmatory (AID 624330)
Assay type: functional
Conditions: not given
In the case of `COc1cc(/C(C)=N/N2CCN(Cc3ccc(C)cc3)CC2)ccc1O`, the IC50 is reported as 271 µM (active).

Target: FAD-linked sulfhydryl oxidase ALR (Homo sapiens, UniProt P55789)
Sequence (P55789 whole entry): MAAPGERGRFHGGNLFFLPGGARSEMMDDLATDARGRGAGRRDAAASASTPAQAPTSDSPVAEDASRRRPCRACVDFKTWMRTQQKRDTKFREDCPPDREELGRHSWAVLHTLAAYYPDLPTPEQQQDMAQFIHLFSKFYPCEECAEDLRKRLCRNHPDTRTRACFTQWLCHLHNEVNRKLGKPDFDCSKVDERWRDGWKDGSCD
Experiment: inhibitors of human ALR sulfhydryl oxidase, dose response, biochemical, H2O2 detection, luminescence, cherry-pick (AID 493248)
Conditions: not given
In the case of `COc1ccccc1N1CCN(C(=O)CCNS(=O)(=O)c2cc(Br)cnc2N)CC1`, the AC50 is reported as 11.8 µM (active).
With `CCN(CC)Cc1c(-c2ccccc2)nc2ccc(C)cc2c1O` the AC50 was 1.77 µM (active).
For `COc1cccc(CNC(=O)CCNC(=O)N2CCn3c2nc2ccccc23)c1`, the AC50 was 1.09 µM (active).
In the case of `COc1cc(/C(C)=N/N2CCN(Cc3ccc(C)cc3)CC2)ccc1O`, the AC50 is reported as 7.66 µM (active).
In the case of `O=C(NCc1cccs1)C(=O)NCC(c1ccco1)N1CCN(c2ccccc2)CC1` (stereo unspecified), the AC50 is reported as 0.01 µM (active).
In the case of `NNCCc1ccccc1` [PHENELZINE SULFATE], the AC50 is reported as 7.5 µM (active).
In the case of `COc1cccc(/C=N/N2C(=O)NC3(CCCCC3)C2=O)c1O`, the AC50 is reported as 9.34 µM (active).
With `Nc1n[nH]c(N2CCN(c3ccc(Cl)cc3)CC2)n1` the AC50 was 0.325 µM (active).
For `COc1ccccc1Nc1nc(C2(C)CCC(=O)O2)cs1` (stereo unspecified), the AC50 was 4.38 µM (active).

Target: Cytochrome P450 2C9 (Homo sapiens, UniProt P11712)
Sequence (P11712 whole entry): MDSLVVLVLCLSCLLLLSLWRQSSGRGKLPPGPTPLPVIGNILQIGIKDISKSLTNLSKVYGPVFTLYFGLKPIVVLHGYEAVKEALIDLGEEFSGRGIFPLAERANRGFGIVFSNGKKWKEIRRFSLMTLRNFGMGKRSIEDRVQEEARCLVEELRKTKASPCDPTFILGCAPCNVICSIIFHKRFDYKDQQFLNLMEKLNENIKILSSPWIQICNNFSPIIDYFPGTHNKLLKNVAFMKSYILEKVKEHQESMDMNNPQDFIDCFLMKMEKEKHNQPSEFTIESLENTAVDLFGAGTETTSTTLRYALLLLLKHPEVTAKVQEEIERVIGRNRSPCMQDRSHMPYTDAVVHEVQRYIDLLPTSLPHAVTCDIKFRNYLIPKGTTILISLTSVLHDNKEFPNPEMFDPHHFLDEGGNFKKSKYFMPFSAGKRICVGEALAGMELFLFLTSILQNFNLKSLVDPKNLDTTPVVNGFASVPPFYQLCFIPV
Experiment: not given
Conditions: not given
For `CCOC(=O)c1cnn(-c2ccccc2)c1-n1cccc1C(=O)C(=O)Nc1ccccc1C(F)(F)F`, the AC50 was 5.62 µM (inconclusive).

System: not listed separately
Experiment: Luminescence Cell-Based Dose Response HTS to Identify Activators of Luciferase Translation or Activity in H4 […] Cells. [Related pubchem assays: 1829 (Project Summary), 1814 (Primary HTS)]
Assay type: functional
Conditions: not given
For `N#Cc1c(-c2ccc(Cl)cc2)ccn2nc(C3CCCCC3)nc12`, the EC50 was 6.98 µM (active).

Target: Cytochrome P450 3A4 (Homo sapiens, UniProt P08684);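 further: CYP3A4 tested as one member of a cytochrome P450 panel screen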
Sequence (P08684 whole entry): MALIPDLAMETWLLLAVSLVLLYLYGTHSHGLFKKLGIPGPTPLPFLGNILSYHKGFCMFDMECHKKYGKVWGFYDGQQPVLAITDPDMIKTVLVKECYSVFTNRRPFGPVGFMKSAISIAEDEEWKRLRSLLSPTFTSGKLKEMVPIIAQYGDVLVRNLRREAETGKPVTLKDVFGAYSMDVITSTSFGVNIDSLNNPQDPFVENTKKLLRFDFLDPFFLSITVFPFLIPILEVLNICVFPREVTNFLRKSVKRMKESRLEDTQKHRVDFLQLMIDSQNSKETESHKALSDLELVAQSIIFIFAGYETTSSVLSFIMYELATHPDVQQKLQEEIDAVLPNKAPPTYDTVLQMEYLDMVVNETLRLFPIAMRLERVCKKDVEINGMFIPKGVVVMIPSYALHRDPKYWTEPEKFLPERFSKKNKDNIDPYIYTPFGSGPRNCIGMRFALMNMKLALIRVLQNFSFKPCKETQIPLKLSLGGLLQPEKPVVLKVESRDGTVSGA
Experiment: not given
Conditions: not given
For `CCOC(=O)c1cnn(-c2ccccc2)c1-n1cccc1C(=O)C(=O)Nc1ccccc1C(F)(F)F`, the AC50 was 4.47 µM (inconclusive).

System: INS1
Experiment: beta cell apoptosis inhibitors, cytokine rescue, dose response, luminescence, retest (AID 449756);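 further: cell death triggered by IL-1 beta plus TNF-alpha plus IFN-gamma mixture; protective hits raise ATP signal compared with cytokine alone wells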
Assay type: functional, cell-based
Conditions: Rattus norvegicus
In the case of `Cc1cc(C(=O)C(C)OC(=O)c2ccc(NC(=O)CC#N)cc2)c(C)n1-c1ccc(OC(F)F)cc1` (stereo unspecified), the AC50 is reported as 4.26 µM (active).
With `C/C(=N\NC(=O)c1ccoc1C)c1ccccc1O` the AC50 was 3.12 µM (active).
For `CCOc1ccc2nc(NC(=O)c3cccc(-c4cc5ccccc5oc4=O)c3)sc2c1`, the AC50 was 3.24 µM (active).

System: not listed separately
Experiment: cells
Assay type: functional
Conditions: not given
In the case of `O=C(CCNc1ccc(Cl)cc1)c1cccs1`, the IC50 is reported as 25.5 µM (active).
In the case of `COc1ccc(C(=O)OCn2nnc3ccccc3c2=O)cc1[N+](=O)[O-]`, the IC50 is reported as 7.55 µM (active).
With `C=Cc1cccc(NC(=O)COc2ccccc2)c1` the IC50 was > 50 µM (active).
For `CCOC(=O)c1cc(-c2cccc([N+](=O)[O-])c2)on1`, the IC50 was 10.3 µM (active).
With `CC(C)Cc1nnc(NC(=O)CCS(=O)(=O)c2ccc(Cl)cc2)s1` the IC50 was 36 µM (active).
With `COc1ccc(C(=O)COC(=O)COc2ccc(C)c(C)c2)cc1` the IC50 was > 50 µM (active).

Target: T3, Cytochrome P450 1A2 (Homo sapiens, UniProt P05177);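 further: PubChem cytochrome P450 panel assay, CYP1A2 panel member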
T3 sequence (P05177 whole entry): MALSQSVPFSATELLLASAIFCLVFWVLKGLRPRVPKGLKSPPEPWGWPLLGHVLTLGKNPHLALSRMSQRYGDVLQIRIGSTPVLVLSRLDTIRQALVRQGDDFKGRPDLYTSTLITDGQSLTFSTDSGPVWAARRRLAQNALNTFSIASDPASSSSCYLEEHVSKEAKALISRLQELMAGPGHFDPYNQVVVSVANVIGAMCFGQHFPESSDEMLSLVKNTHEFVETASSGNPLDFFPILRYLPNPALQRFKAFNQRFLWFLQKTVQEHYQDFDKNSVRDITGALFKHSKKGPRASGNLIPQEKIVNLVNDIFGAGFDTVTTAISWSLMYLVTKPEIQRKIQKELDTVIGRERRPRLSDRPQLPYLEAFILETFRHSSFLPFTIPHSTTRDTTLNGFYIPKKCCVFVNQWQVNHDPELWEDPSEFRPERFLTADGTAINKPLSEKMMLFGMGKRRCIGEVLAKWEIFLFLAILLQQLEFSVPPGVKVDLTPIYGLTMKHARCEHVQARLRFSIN
Experiment: not given
Conditions: not given
For `CCOC(=O)c1cnn(-c2ccccc2)c1-n1cccc1C(=O)C(=O)Nc1ccccc1C(F)(F)F`, the AC50 was 14.1 µM (inconclusive).

System: not listed separately
Experiment: HEp-2 cell cytotoxicity, dose response, cytotoxicity control for RSV inhibitor project, HTS (AID 2410)
Assay type: functional
Conditions: human respiratory syncytial virus
For `OCCOCCn1c(CCNc2nc(-c3ccc(Cl)cc3)cs2)nc2cc(Cl)c(Cl)cc21`, the CC50 was 14.3 µM (active).
In the case of `CCOc1cc(/C=N/NC(N)=O)cc(Br)c1OCc1ccccc1`, the CC50 is reported as 19.4 µM (active).
With `COC(=O)c1ccc(-c2ccco2)n1Cc1nc(-c2ccc(OC)c(OC)c2)oc1C` the CC50 was 34 µM (active).
With `CCOC(=O)c1cnn(-c2ccccc2)c1-n1cccc1C(=O)C(=O)Nc1ccccc1C(F)(F)F` the CC50 was 24.1 µM (active).
For `O=C1CCC(/C=C/c2ccccc2)=NN1Cc1ccc(Cl)c(Cl)c1`, the CC50 was 24.4 µM (active).
With `Cc1cccc(NC(=O)Cc2coc3ccc4ccccc4c23)n1` the CC50 was 33.8 µM (active).
